Laboratory results taken from patent US20210230134A1, “VITAMIN E DERIVATIVES AND THEIR USE AS MULTI-SCALE IMAGING AGENTS” (EXACT DELIVERY INC., priority 2018, published 2021).

What was measured:
C2C12 mouse myoblasts = test: MTT tetrazolium reduction viability assay, C2C12 myoblasts; format: cell-based; conditions: 24 h; for viability (formazan absorbance at 570 nm, MTT): 1 nM to 1 mM, vs 0.1% DMSO vehicle
Description: (§1) C2C12 mouse myoblasts and mouse embryonic fibroblasts (MEFs) were cultured in DMEM supplemented with 10% (v/v) FBS, 4500 mg/L glucose, 4 mM L-glutamine, 1 mM sodium pyruvate, 2% (v/v) MEM nonessential amino acid solution, and penicillin (50 I.U./mL)/streptomycin (50 μg/mL) solution (complete media). Cells were cultured in a humidified 5% CO2 atmosphere within a Thermo Forma Series II water-jacketed CO2 incubator maintained at 37° C. Cells were transferred to fresh 96- or 6-well plates (2,000 cells/well & 60,000 cells/well, respectively) in the evening prior to commencing tocopherol treatments.
(§2) Each tocopherol was dissolved in sterile 100% DMSO to yield a 1 M stock solution. Less concentrated stock solutions were subsequently prepared using ten-fold serial dilutions. All tocopherol solutions were stored at −20° C. To treat cultured cells, media was replaced with complete media containing freshly-added tocopherol; the final amount of vehicle (DMSO) for all concentrations tested was 0.1% (v/v).
(§3) Media was discarded, wells were washed once with phenol red-free complete culture media, and 100 μL/well phenol red-free complete culture media containing 0.45 mg/mL MTT was added. Two hours later, solubilization solution [40% (v/v) dimethylformamide, 2% (v/v) glacial acetic acid, 16% (w/v) sodium dodecyl sulfate, pH 4.7] was added (100 μL/well) and well contents were gently mixed by re-suspension to dissolve the formazan precipitate. Plates were incubated at room temperature in darkness for 2 h before recording absorbance at 570 nm using a Bio-Tek PowerWave Microplate UV-Vis spectrophotometer (Winooski, Vt., USA). For each plate, background signal averaged from cell-free wells containing vehicle treatments was subtracted
as §3, with “subtracted.” for “subtracted”

[1] = tested on: mouse embryonic fibroblasts (MEFs); test: MTT tetrazolium reduction viability assay, MEFs; format: cell-based; conditions: 24 h; for viability (formazan absorbance at 570 nm, MTT): 1 nM to 1 mM, vs 0.1% DMSO vehicle
Description: as §1, §2, §3
as §3, with “subtracted.” for “subtracted”

[2] = target: T1, α-TTP (α-tocopherol transfer protein) (Homo sapiens, UniProt P49638); test: Competitive displacement of TBtoc from pre-incubated complex with α-TTP; format: binding; conditions: 0.4 μM TBtoc pre-incubated with 0.4 μM α-TTP; competitor in dioxane; TKE buffer
T1 sequence (P49638 1-278): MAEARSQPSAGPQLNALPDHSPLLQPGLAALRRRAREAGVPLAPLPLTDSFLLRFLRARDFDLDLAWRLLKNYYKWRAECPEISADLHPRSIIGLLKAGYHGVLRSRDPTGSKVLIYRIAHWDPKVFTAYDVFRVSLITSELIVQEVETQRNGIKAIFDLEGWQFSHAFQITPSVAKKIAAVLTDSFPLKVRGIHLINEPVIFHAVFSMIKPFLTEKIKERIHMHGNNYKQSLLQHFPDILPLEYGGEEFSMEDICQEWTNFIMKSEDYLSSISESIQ
Description: When α-TTP is pre-incubated with TBtoc, competitive assays are possible by the incremental addition of a specific ligand such as natural α-tocopherol. Cholesterol served as a negative control (FIG. 5). About 57% of the bound fluorescence could be competed of α-TTP by α-tocopherol, whereas only about 8% was lost with cholesterol.

Row | SMILES | viability (formazan absorbance at 570 nm, MTT) (C2C12 mouse myoblasts) | cytotoxic concentration (no cytotoxicity up to stated concentration) (C2C12 mouse myoblasts; MTT) [mM] | viability (formazan absorbance at 570 nm, MTT) [1] | cytotoxic concentration (no cytotoxicity up to stated concentration) ([1]; MTT) [mM] | bound fluorescence competed off α-TTP [2]
1 | Cc1c(C)c2c(c(C)c1[19F])CC[C@@](C)(CCC[C@H](C)CCC[C@H](C)CCCC(C)C)O2 [F-Toc] | no sensitivity | > 1 | no sensitivity | > 1 | 
2 | Cc1c(C)c2c(c(C)c1I)CC[C@@](C)(CCCC(C)CCCC(C)CCCC(C)C)O2 (stereo partly drawn) [I-Toc, (2R)-6-iodo-2,5,7,8-tetramethyl-2-(4.8.12-trimethyl-tridecyl)-chroman] | no negative sensitivity |  | no negative sensitivity |  | 
3 | CC(C)CCC[C@@H](C)[C@H]1CC[C@H]2[C@@H]3CC=C4C[C@@H](O)CC[C@]4(C)[C@H]3CC[C@]12C [cholesterol] |  |  |  |  | about 8%
4 | Cc1c(C)c2c(c(C)c1O)CC[C@@](C)(CCC[C@H](C)CCC[C@H](C)CCCC(C)C)O2 [α-tocopherol, reference compound] | no sensitivity |  | no sensitivity |  | About 57%
